Here are results for five compounds from publication PMC8533202, “Design of Inhibitors of the Intrinsically Disordered Protein NUPR1: Balance between Drug Affinity and Target Function” (Biomolecules, 2021).

In assay [1] the test system is PDAC081T cells. Briefly: Cell viability assay (PrestoBlue). It counts as cell-based. To be noted: Homo sapiens; PDAC081T (classical subtype), 72 h. The text has this:
(§1) Primary pancreatic cancer cells PDAC001T, PDAC012T, PDAC021T, PDAC081T, PDAC082T, PDAC087T, PDAC088T, PDAC089T, and PDAC115T were obtained from the PaCaOmics clinical trial registered at www.clinicaltrials.gov (accessed on 2 October 2021) with registration number NCT01692873. We included PDAC samples from both echoendoscopic ultrasound-guided fine-needle (EUS-FNA) biopsies for patients with unresectable tumors and from surgical specimens for patients undergoing surgery. The tumor samples of these patients were used to generate patient-derived xenograft in nude mice as previously reported. Xenografts obtained from mice were split into several small pieces and used for cell culture in a biosafety chamber: after fine mincing, they were treated with collagenase type V (ref C9263; Sigma-Aldrich, St. Louis, MO, USA) and trypsin/EDTA (ref 25200-056; Gibco, Life Technologies, Grand Island, NY, USA) and were suspended in Dulbecco’s modified Eagle’s medium supplemented with 1% w/w penicillin/streptomycin (Gibco, Life Technologies, Paisley, UK) and 10% fetal bovine serum (Lonza Inc., Walkersville, MD, USA). After centrifugation, cells were resuspended in serum-free ductal media adapted from Schreiber et al. at 37 °C in a 5% CO2 incubator. Amplified cells were stored in liquid nitrogen as previously reported. Cells were weaned from antibiotics for ≥48 h before testing.
(§2) Cell viability was evaluated in ten pancreatic cancer cell lines, including MiaPaCa-2, and nine primary pancreatic cancer-derived cell lines: PDAC001T, PDAC012T, PDAC021T, PDAC081T, PDAC082T, PDAC087T, PDAC088T, PDAC089T, and PDAC115T. MiaPaCa-2 cells were obtained from ATCC (Manassas, VA, USA) and maintained in DMEM (Invitrogen, Cergy-Pontoise, France), supplemented with 10% […] at 37 °C with 5% CO2. The primary pancreatic cancer-derived cells were cultured in serum free ductal media (SFDM) following a procedure adapted from those previously described, without antibiotic, and incubated at 37 °C in a 5% CO2 incubator. Cells were plated in 96-well plates (5000 cells/well) overnight. Then, the media were supplemented with the compounds to be tested at 0–100 µM concentration, and the samples were incubated for another additional 72 h before performing the measurement. Cell viability was estimated after addition of PrestoBlue™ reagent (Life Technologies, Paris, France) for 3 h according to the PrestoBlue™ cell viability reagent protocol provided by the supplier. Cell viability was normalized when comparing to untreated cell rates. Experiments were performed in triplicate and each set was repeated three times, with similar results.

Assay [2] deals with PDAC012T cells. Nature of the assay: Cell viability assay (PrestoBlue). The format is cell-based. To be noted: Homo sapiens; PDAC012T (classical subtype), 72 h.
Description: as §1, §2

In assay [3] the test system is PDAC115T cells. Nature of the assay: Cell viability assay (PrestoBlue). The format is cell-based. To be noted: Homo sapiens; PDAC115T (basal subtype), 72 h.
Description: as §1, §2

The test system of assay [4] is PDAC088T cells. Nature of the assay: Cell viability assay (PrestoBlue). To be noted: Homo sapiens; PDAC088T (classical subtype), 72 h. The format is cell-based.
Description: as §1, §2

Assay [5] concerns PDAC021T cells. Nature of the assay: Cell viability assay (PrestoBlue). It counts as cell-based. To be noted: Homo sapiens; PDAC021T (basal subtype), 72 h.
Description: as §1, §2

Assay [6] relates to PDAC087T cells. Briefly: Cell viability assay (PrestoBlue). It counts as cell-based. To be noted: Homo sapiens; PDAC087T (basal subtype), 72 h.
Description: as §1, §2

In assay [7] the test system is PDAC001T cells. Briefly: Cell viability assay (PrestoBlue). The format is cell-based. To be noted: Homo sapiens; PDAC001T (basal subtype), 72 h.
Description: as §1, §2

The test system of assay [8] is PDAC089T cells. Briefly: Cell viability assay (PrestoBlue). To be noted: Homo sapiens; PDAC089T (derived from a liver metastasis), 72 h. The format is cell-based.
Description: as §1, §2

For assay [9], the system named is PDAC082T cells. Briefly: Cell viability assay (PrestoBlue). It counts as cell-based. To be noted: Homo sapiens; PDAC082T (classical subtype), 72 h.
Description: as §1, §2

For assay [10], the target named is T1, NUPR1 (Homo sapiens, UniProt O60356).
T1 construct: made in house
T1 sequence (O60356 1-82): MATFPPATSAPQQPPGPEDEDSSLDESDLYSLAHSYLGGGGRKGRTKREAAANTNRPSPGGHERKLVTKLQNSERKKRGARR
Briefly: Isothermal titration calorimetry (ITC) binding to NUPR1. To be noted: 25 °C; for N (stoichiometry) / ΔG / ΔH / −TΔS: pH 7.0; for Ka / Kd: sodium phosphate 20 mM, pH 7.0, 2% DMSO; for Kd: read-out: Kd (=1/Ka). As to the method: The binding of the ZZW-115-derived compounds to NUPR1 was determined as described by using a high sensitivity isothermal titration calorimeter Auto-iTC200 (MicroCal, Malvern-Panalytical, Malvern, UK). Protein samples and solutions were properly degassed. Experiments were performed with freshly prepared protein solutions at 25 °C. A solution of NUPR1 (20 μM, in sodium phosphate 20 mM, pH 7.0, 2% DMSO) in the calorimetric cell was titrated with a solution of each compound (200 μM, in sodium phosphate 20 mM pH 7.0, 2% DMSO). The inhibitors were dissolved in the same buffer used for the protein. A standard protocol was employed: 19 titrant injections with 2 μL compound solution were programmed with a time spacing of 150 s, a stirring speed of 750 rpm, and a reference power of 10 μcal/s. The heat evolved after each ligand injection was calculated from the integral of the calorimetric signal. The heat due to the binding reaction was obtained as the difference between the reaction heat and the corresponding heat of injection, the latter estimated as a constant value throughout the experiment, and included as an adjustable parameter in the analysis. Control experiments (with the compounds injected into the buffer) were performed under the same experimental conditions.
The association constant (Ka), the enthalpy change (ΔH) and the stoichiometry (n) of the binding reaction were obtained through nonlinear regression analysis of experimental data to a model assuming a single ligand binding site for the protein. Experiments were performed in replicate and data were analyzed using in-house-developed software implemented in Origin 7 (OriginLab).
The interaction between ZZW-115-Derived compounds and NUPR1 was studied by using ITC, the gold-standard technique in binding-affinity determination, to test our theoretical prediction. […] From the thermogram (thermal power as a function of time), the binding isotherm (ligand-normalized heat as a function of the molar ratio) was obtained through integration of the individual heat effect associated with injection of each ligand solution (Figure 3). We used a nonlinear least-squares regression analysis employing a model that considered a single binding site in NUPR1 to estimate binding parameters such as the dissociation constant and the binding enthalpy.
A general note: Isothermal titration calorimetry measures the heat released or taken up as one component is titrated into another.

Assay [11] relates to MiaPaCa-2 cells. Nature of the assay: Cell viability assay (PrestoBlue). It counts as cell-based, human. To be noted: Homo sapiens, MIA PaCa-2, 72 h, MiaPaCa-2, 72 h. The method, then:
as §2

`CCN(CC)CCN1CCN(CCCN2c3ccccc3Sc3ccc(C(F)(F)F)cc32)CC1` [ZZW-129]: the IC50 in assay [1] turned out to be 0.86 µM; in [2] it was 2.77 µM; in assay [3], 2.46 µM; in assay [4], 7.28 µM; in assay [5], 3.41 µM; in assay [6] it was 4.28 µM. The IC50 in [7] is 1.94 µM; in assay [8] it was 7.9 µM; in [9], 3.56 µM; in [11], 0.33 µM. Besides, in [10], the “N (stoichiometry)” value stood at 1.2 ± 0.1. In assay [10], this compound had a ΔG of −7.5 ± 0.1 kcal mol^–1. In assay [10], the ΔH was −0.7 ± 0.4 kcal mol^–1. Besides, the “−TΔS” value in [10] is reported as −6.8 ± 0.4 kcal mol^–1. This compound also came in with a Ka in assay [10] of 3.1 ± 0.3 M^–1 × 10^5. In assay [10], the Kd is 3.2 ± 0.3 µM.
`FC(F)(F)c1ccc2c(c1)N(CCCN1CCN(CCN3CCCC3)CC1)c1ccccc1S2` [ZZW-130]: the IC50 came out at 1.12 µM in assay [1]; 4.18 µM in assay [2]; 2.91 µM in [3]; 6.75 µM in [4]; 3.81 µM in [5]; 4.95 µM in [6]. The IC50 in assay [7] was found to be 2.45 µM; in assay [8], 6.03 µM; in assay [9] it was 4.33 µM; in [11], 0.35 µM. Moreover, in assay [10], the “N (stoichiometry)” value turned out to be 1.4 ± 0.1. This compound gave a ΔG in assay [10] of −7.9 ± 0.1 kcal mol^–1. The ΔH in [10] stood at 0.3 ± 0.3 kcal mol^–1. The “−TΔS” value in [10] is recorded as −8.2 ± 0.3 kcal mol^–1. In assay [10], this compound yielded a Ka of 6.4 ± 0.4 M^–1 × 10^5. Also, the Kd in assay [10] amounted to 1.6 ± 0.1 µM.
For `FC(F)(F)c1ccc2c(c1)N(CCCN1CCN(CCN3CCCCC3)CC1)c1ccccc1S2` [ZZW-131], the IC50 is 0.97 µM in assay [1]; 5.25 µM in assay [2]; 5.75 µM in [3]; 8.11 µM in assay [4]; 6.47 µM in assay [5]; 4.43 µM in [6]. Further, the IC50 in assay [7] stood at 3.98 µM; in [8], 10.6 µM; in [9] it was 6.49 µM; in [11], 0.3 µM. The “N (stoichiometry)” value in assay [10] amounted to 0.8 ± 0.1. Moreover, the ΔG in [10] is reported as −7.7 ± 0.1 kcal mol^–1. The compound further registered a ΔH in assay [10] of 0.5 ± 0.3 kcal mol^–1. In addition, the “−TΔS” value in [10] was −8.2 ± 0.3 kcal mol^–1. Further, the Ka in assay [10] is on record as 4.7 ± 0.3 M^–1 × 10^5. Also, in [10], the Kd came to 2.1 ± 0.1 µM.
As to `CCN(CC)CCCN1CCN(CCCN2c3ccccc3Sc3ccc(C(F)(F)F)cc32)CC1` [ZZW-143], the IC50 was 0.97 µM in assay [1]; 2.18 µM in assay [2]; 2.5 µM in assay [3]; 5.94 µM in assay [4]; 2.57 µM in assay [5]; 2.22 µM in assay [6]. The IC50 in assay [7] was determined as 2.31 µM; in assay [8], 6.12 µM; in assay [9], 3.55 µM; in assay [11] it was 0.29 µM. Besides, the “N (stoichiometry)” value in assay [10] was 1.2 ± 0.1. Also, the ΔG in assay [10] is −6.4 ± 0.1 kcal mol^–1. Also, the ΔH in assay [10] is given as 0.8 ± 0.4 kcal mol^–1. In [10], the “−TΔS” value is −7.2 ± 0.4 kcal mol^–1. In assay [10], this compound returned a Ka of 0.5 ± 0.1 M^–1 × 10^5. Further, in assay [10], the Kd was 20 ± 4 µM.
With `FC(F)(F)c1ccc2c(c1)N(CCCN1CCN(CCCN3CCCC3)CC1)c1ccccc1S2` [ZZW-144], the IC50 in assay [1] was determined as 0.98 µM; in [2], 2.51 µM; in [3], 3.22 µM; in assay [4], 5.8 µM; in assay [5] it was 3.69 µM; in [6], 3.57 µM. Besides, the IC50 in [7] worked out at 2.51 µM; in assay [8], 8.38 µM; in assay [9], 3.04 µM; in assay [11] it was 0.26 µM. In addition, in assay [10], the “N (stoichiometry)” value is given as 1.2 ± 0.1. The same compound displayed a ΔG in [10] of −6.7 ± 0.1 kcal mol^–1. For the same compound, the ΔH in [10] is 0.5 ± 0.5 kcal mol^–1. Also, in assay [10], the “−TΔS” value is listed as −7.2 ± 0.5 kcal mol^–1. The compound further had a Ka in [10] of 0.85 ± 0.8 M^–1 × 10^5. In addition, the Kd in assay [10] came out at 12 ± 1 µM.

What is called IC50 is the concentration at which inhibition is half-maximal.
